Measured values: patent publication US7026355B2, “Use of rhein or diacerhein compounds for the treatment or prevention of vascular diseases” (Transition Therapeutics Inc., priority 2001, dated 2006)
Numbered stars: 1 amine (or outer) side, 2 acyl side, 3 side chain; on linkers, the order of the positions; unused ones are H or OH. Bridge positions count the residues as written; N and C are the ends. Square brackets hold non-standard residues; d marks the D form. Peptide text beside a SMILES is read from it. I, II: the chains in the order shown. Actinocin(9to1) = Cc1c2oc3c(C)ccc(C(=O)[*:1])c3nc-2c(C(=O)[*:2])c(N)c1=O; NMeV = CN[C@H](C(=O)O)C(C)C; Sar = CNCC(=O)O

Experiments:
A-10 cells [1] = test: CellTiter 96 AQueous One Solution Cell Proliferation Assay; format: cell-based, Rat; details: for Measure of Proliferative Activity (Absorbance at 490 nm): 24 h, no treatment 0.775; for proliferative activity as compared to untreated cells: concentration higher than 10^−7 M
Protocol: A-10 cells were seeded at 1.0×10^3 cells/well in 96 well plates using Dulbecco's Modified Eagle Medium™ (Gibco BRL Cat. # 11885-084), 10% FBS and 1% Antibiotic Antimycotic (Gibco BRL Cat. # 15240) and allowed to grow overnight. Prior to treatment, cells were washed and the culture medium was replaced with culture medium containing either rhein or diacerhein at varying concentrations ranging from 10^−4 to 10^−8M.
(§1) The CellTiter 96® AQueous One Solution Cell Proliferation Assay (Promega) was used as a colorimetric method for determining the number of viable cells in proliferation. Cell proliferation assays were performed by adding a small amount of the CellTiter 96® AQueous One Solution Reagent directly to culture wells, incubating for 1–4 hours and then recording absorbance at 490 nm with a 96 well plate reader. The quantity of formazan product as measured by the amount of 490 nm absorbance is known in the art to be directly proportional to the number of living cells in the culture. For the assay, cells were incubated with rhein or diacerhein for 24 h. In addition, cells from selected concentrations are also treated with rhein or diacerhein and are incubated for 1–3 days. The cells are harvested and counted using a hemocytometer. Trypan blue staining was carried out to determine % of viable cells vs dead cells.

[2] = tested on: aortic smooth muscle cells; test: prolonged incubation (1-3 days), cells counted with a hemocytometer; format: cell-based, Rat
Protocol: as §1
Intimal smooth muscle cell (SMC) proliferation plays a key role in atherosclerosis and restenosis following vascular injury. Therefore, rhein or diacerhein is predicted to effectively treat these disease states.

A-10 cells [3] = test: Trypan blue staining, % of viable cells vs dead cells; format: cell-based; details: no treatment 96.2%
Protocol: as §1

[4] = 5 to 50 mg/kg for periods as long as 50 weeks; cited from earlier work
iron regulatory protein = details: inflamed human monocytes; cited from earlier work
[5] = tested on: prostaglandin E2 synthesis; details: cited from earlier work
[6] = tested on: Rat aortic smooth muscle cells (A-10 cells); test: in vitro assay of smooth muscle cell migration after scrape injury; format: cell-based; details: incubation 20 h
Protocol: The following in vitro assay was conducted to illustrate the effect of diacerhein on smooth muscle cell migration. Increased smooth muscle cell migration following injury is one of the predominant causes of obstruction of the vascular system following stenting and other vascular procedures.
Rat aortic smooth muscle cells (A-10 cells) were seeded at 2.5×10^5 cells/well in 6 well plates using Dulbecco's Modified Eagle Medium™ (Gibco BRL Cat. # 11885-084), 10% FBS and 1% Antibiotic Antimycotic (Gibco BRL Cat. # 15240). Confluency of cells after about 8 h was between 80˜90%. Cells were injured with the single edge cell scraper (one injury/well) then washed twice with PBS and treated with diacerhein at concentrations ranging from 50 μM to 100 μM. Images were taken using a X5 modulation objective (Zeiss, Germany) attached to a Zeiss Axiovert 100 inverted microscope equipped with Hoffman Modulation contrast optical filters (Greenvale, N.Y.).
The images were taken at zero time and following the incubation of smooth muscle cells with diacerhein for a period of 20 h.

[7] = clinical trials of actinomycin-D eluting stents; cited from earlier work

Structure (SMILES)	Measure of Proliferative Activity (Absorbance at 490 nm) (A-10 cells [1]; Treatment with 2.5 × 10^−5 M)	Measure of Proliferative Activity (Absorbance at 490 nm) (A-10 cells [1]; Treatment with 5.0 × 10^−5 M)	Measure of Proliferative Activity (Absorbance at 490 nm) (A-10 cells [1]; Treatment with 7.5 × 10^−5 M)	Measure of Proliferative Activity (Absorbance at 490 nm) (A-10 cells [1]; Treatment with 10^−4 M)	Measure of Proliferative Activity (Absorbance at 490 nm) (A-10 cells [1]; Treatment with 10^−5 M)	Measure of Proliferative Activity (Absorbance at 490 nm) (A-10 cells [1]; Treatment with 10^−6 M)	Measure of Proliferative Activity (Absorbance at 490 nm) (A-10 cells [1]; Treatment with 10^−7 M)	proliferative activity as compared to untreated cells (A-10 cells [1])	anti-proliferative activity on prolonged incubation (FIG. 2) [2]	Percentage of viable cells (A-10 cells [3]; Treatment with 10^−4 M) [%]	Percentage of viable cells (A-10 cells [3]; Treatment with 10^−5 M) [%]	Percentage of viable cells (A-10 cells [3]; Treatment with 10^−6 M) [%]	severity of osteoarthritis [4]	iron regulatory protein activation (iron regulatory protein)	prostaglandin E2 synthesis [5]	migration of smooth muscle cells ([6]; 50 μM)	migration of smooth muscle cells ([6]; 100 μM)	prevention of restenosis [7]
O=C(O)c1cc(O)c2c(c1)C(=O)c1cccc(O)c1C2=O [Rhein, 9,10-dihydro-4,5-dihydroxy-9,10-dioxo-2-anthracenecarboxylic acid]	0.577	0.518	0.460	0.430	0.675	0.738	0.891	decrease in proliferative activity	anti-proliferative activity	97.1	96.0	97.5						
CC(=O)Oc1cccc2c1C(=O)c1c(OC(C)=O)cc(C(=O)O)cc1C2=O [Diacerhein, 4,5-bis(acetyloxy)-9,10-dihydro-4,5dihydroxy-9,10-dioxo-2-anthracenecarboxylic acid]	0.561	0.419	0.408	0.380	0.646	0.710	0.738	decrease in proliferative activity	anti-proliferative activity	97.0	97.5	96.2	reduced the severity of osteoarthritis	inhibits iron regulatory protein activation	stimulates prostaglandin E2 synthesis	significantly inhibited	significantly inhibited	
Cc1c2oc3c(C)ccc(C(=O)N[C@@H]4C(=O)N[C@H](C(C)C)C(=O)N5CCC[C@H]5C(=O)N(C)CC(=O)N(C)[C@@H](C(C)C)C(=O)O[C@@H]4C)c3nc-2c(C(=O)N[C@@H]2C(=O)N[C@H](C(C)C)C(=O)N3CCC[C@H]3C(=O)N(C)CC(=O)N(C)[C@@H](C(C)C)C(=O)O[C@@H]2C)c(N)c1=O [actinomycin D] (I: T[dV]P[Sar][NMeV] / II: T[dV]P[Sar][NMeV]; ester I:1-I:C, II:1-II:C; linker I:N-II:N via Actinocin(9to1))																		ineffectiveness
